Drawing on patent publication US20080021055A1, “Novel cycloalkyl derivatives as inhibitors of bone resorption and vitronectin receptor antagonists” (Aventis Pharma S.A., priority 1996, published 2008), this text covers IC50 for two compounds.

This experiment deals with T1, vitronectin receptor αvβ3 (Homo sapiens, UniProt P05106+P06756).
T1 construct: expressed in transfected cells
The experiment is described as follows: Vn/293 cell test: inhibition of the binding of 293 cells to human vitronectin. The experiment is classed as cell-based. To be noted: 293 cells cotransfected with αv and β3 subunits, binding to plates coated with human vitronectin, 90 min at 37° C. The text has this:
The inhibitory action of the compounds according to the invention against the vitronectin receptor […] can be determined, for example, as described below:
Test for the measurement of the inhibition of the binding of 293 cells to human vitronectin (abbreviated in the test results to Vn/293 cell test)
1. Purification of Human Vitronectin
Human vitronectin was isolated from human plasma and purified by affinity chromatography according to the method of Yatohyo et al., Cell Structure and Function, 1988, 23, 281-292.
293 cells, a human embryonic kidney cell line, which were cotransfected with DNA sequences for the αv and β3 subunits of the vitronectin receptor were selected according to the FACS method with a view to a high expression rate (>500,000 αvβ3 receptors/cell). The selected cells were cultured and sorted again by means of FACS to obtain a stable cell line (15 D) with expression rates of >1,000,000 copies of αvβ3 per cell.
A Linbro 96-well tissue culture plate with a flat bottom was coated overnight at 4° C. with human vitronectin (0.01 mg/ml, 0.05 ml/well) in phosphate-buffered saline solution (PBS) and then blocked with 0.5% strength BSA. […] The reaction was stopped with a glycine (50 mmol)/EDTA (5 mmol) buffer (pH 10.4) and the absorption of each well was measured at 405-650 nm. The data were evaluated using standard methods.

T1 sequence (P06756 31-889 limits assumed): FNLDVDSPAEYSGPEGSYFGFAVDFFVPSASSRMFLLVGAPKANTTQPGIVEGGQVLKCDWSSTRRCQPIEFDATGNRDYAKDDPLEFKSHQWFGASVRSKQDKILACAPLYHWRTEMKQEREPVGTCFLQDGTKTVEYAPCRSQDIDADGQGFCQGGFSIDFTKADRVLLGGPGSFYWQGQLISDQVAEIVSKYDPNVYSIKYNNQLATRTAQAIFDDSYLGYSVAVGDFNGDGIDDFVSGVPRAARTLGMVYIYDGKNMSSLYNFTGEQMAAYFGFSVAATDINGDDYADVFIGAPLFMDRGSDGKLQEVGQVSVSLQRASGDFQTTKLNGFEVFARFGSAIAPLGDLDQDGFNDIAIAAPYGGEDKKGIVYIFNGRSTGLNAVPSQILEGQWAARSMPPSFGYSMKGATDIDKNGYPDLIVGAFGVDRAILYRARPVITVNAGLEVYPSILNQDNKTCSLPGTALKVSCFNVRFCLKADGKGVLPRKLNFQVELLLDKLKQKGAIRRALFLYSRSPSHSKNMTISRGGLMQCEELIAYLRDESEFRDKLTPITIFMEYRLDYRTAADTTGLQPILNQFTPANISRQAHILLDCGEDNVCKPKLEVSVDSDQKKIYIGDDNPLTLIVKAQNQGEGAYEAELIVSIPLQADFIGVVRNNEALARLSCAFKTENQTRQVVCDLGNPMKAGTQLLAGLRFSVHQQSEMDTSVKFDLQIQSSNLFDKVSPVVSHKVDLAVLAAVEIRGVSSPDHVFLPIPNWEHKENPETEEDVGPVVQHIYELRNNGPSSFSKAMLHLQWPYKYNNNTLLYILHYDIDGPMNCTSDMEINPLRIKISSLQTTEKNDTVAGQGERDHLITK
T1 sequence (P06756 891-1048 limits assumed): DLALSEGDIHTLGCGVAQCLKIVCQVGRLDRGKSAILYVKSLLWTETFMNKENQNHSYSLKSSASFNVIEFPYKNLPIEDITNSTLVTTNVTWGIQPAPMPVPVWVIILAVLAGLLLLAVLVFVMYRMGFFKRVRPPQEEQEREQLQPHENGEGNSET
T1 sequence (P05106 27-788): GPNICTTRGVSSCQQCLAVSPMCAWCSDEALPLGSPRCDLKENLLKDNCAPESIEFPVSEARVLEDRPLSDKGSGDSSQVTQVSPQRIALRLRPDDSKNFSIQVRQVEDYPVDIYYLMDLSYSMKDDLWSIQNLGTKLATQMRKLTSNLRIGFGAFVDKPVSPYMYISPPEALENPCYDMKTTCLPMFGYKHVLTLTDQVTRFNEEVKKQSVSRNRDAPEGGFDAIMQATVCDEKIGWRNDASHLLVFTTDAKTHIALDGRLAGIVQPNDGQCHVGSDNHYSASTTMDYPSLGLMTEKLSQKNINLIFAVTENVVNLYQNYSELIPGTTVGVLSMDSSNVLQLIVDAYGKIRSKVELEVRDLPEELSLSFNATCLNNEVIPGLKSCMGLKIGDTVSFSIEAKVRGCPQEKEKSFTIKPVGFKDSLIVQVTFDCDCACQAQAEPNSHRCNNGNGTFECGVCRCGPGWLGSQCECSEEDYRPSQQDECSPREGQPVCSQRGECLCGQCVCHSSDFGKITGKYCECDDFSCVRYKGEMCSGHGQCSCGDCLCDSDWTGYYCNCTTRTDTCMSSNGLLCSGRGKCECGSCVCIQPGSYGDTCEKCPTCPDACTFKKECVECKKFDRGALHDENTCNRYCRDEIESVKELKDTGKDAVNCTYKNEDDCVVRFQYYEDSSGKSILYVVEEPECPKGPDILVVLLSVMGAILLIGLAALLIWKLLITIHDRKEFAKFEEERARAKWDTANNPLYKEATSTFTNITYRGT

The term IC50 denotes the concentration at which inhibition is half-maximal. Read a high IC50 as weaker potency in that assay. `O=C(CCc1ccc(C(=O)NC[C@H](NC(=O)OCC23CC4CC(CC(C4)C2)C3)C(=O)O)cc1)NC1=NCCCN1` [Example 3, (2S)-2-(1-Adamantylmethyloxycarbonylamino)-3-(4-(2-(1,4,5,6-tetra-hydropyrimidin-2-ylcarbamoyl)ethyl)benzoylamino)propionic acid] showed an IC50 of 32 nM.

As to `N=C(N)NC(=O)CCCOc1ccc(C[C@H](NC(=O)OCC23CC4CC(CC(C4)C2)C3)C(=O)O)cc1` [Example 1, (2S)-2-(1-Adamantylmethyloxycarbonylamino)-3-(4-(3-guanidinocarbonylpropyloxy)phenyl)propionic acid], the 50% inhibitory concentration (IC50) came out at 32 nM.
